Data on 24 compounds can be found in US5086054A, “Novel arylcycloalkanepolyalkylamines” (SRI International, priority 1990, dated 1992).

Where a name gives a salt, the structure may show the parent alone. Read-outs that look alike come from different tables or passages of the source.

Assay [1] concerns σ receptors. To be noted: literature; cited from earlier work.
For assay [2], the target named is T1, SIGMA RECEPTOR (Cavia porcellus, UniProt Q60492).
T1 construct: Two milliter aliquots of the brain membrane preparation, containing 1.7 mg of protein; tissue Pel-Freeze (Rogers, Arkansas); host or cells: guinea-pig brains plus cerebella, membranes
Nature of the assay: Sigma receptor binding assay ([3H]-d-SKF-10,047 displacement, brain membranes). Details: species or system guinea-pig (male Hartley). Conditions: for IC50: read-out: SIGMA RECEPTOR IC50. The protocol: (§1) This example illustrates testing of compounds in receptor binding assays.
(§2) Frozen brains from male Hartley guinea-pigs were obtained from Pel-Freeze (Rogers, Arkansas).
(§3) The brains plus cerebella were homogenized in 10 volumes (v/w) of 0.1M, pH 7.4, ice-cold Tris-HCl buffer with a Brinkmann polytron at setting 4 for 20 seconds. The homogenates were centrifuged at 20,000×g for 20 minutes at 4° C. The pellets were suspended in 10 volumes of ice-cold water and, after sitting on ice for 10 minutes, were centrifuged 30 minutes at 20,000×g at 4° C. The resulting pellets were resuspended in the above Tris buffer in ratio 1:100 (w/v) for σ receptor assays or in 5 mM Tris-HCl having pH 7.4, for PCP receptor assays. The final suspension was homogenized with a dounce glass-glass tissue grinder Wheaton "200", at small clearance (B), with three strokes before use. Two milliter aliquots of the brain membrane preparation, containing 1.7 mg of protein, were incubated in quadruplicate for one hour at 23° C. with competing mixture of ligand and radioligand. For σ receptors, [^3 H]-d-SKF-10,047, 2 nM was used. For PCP receptors, [^3 H] TCP [^3 H]-1-[1-(2-thienyl)cyclohexyl]piperidine), 1 nM was used. The nonspecific bindings were defined by 0.1 mM d-SKF-10,047 and 0.1 mM phencyclidine respectively for σ and PCP receptors. After incubation, free ligand was separated from bound ligand by rapid filtration through Whatman GF/C filters. The filters had been soaked before use in isoamyl alcohol-saturated water to prevent nonspecific [^3 H]-d-SKF-10,047 binding to the filter. In the PCP receptor assay, the filter was soaked in 0.5% polyethylenimine to reduce the filter binding of [^3 H]-TCP. After filtration, the trapped tissue was washed three times with 4 ml aliquots of 0.1 M ice-cold Tris buffer at pH 7.4 for σ receptors and 5 mM, ice-cold Tris buffer pH 7.4 for PCP receptors. The filters were transferred to 5 ml of liquid scintillation fluid and the retained radioactivity was measured by liquid scintillation spectrometry.

Assay [3] concerns the target PCP RECEPTOR
Kind of assay: PCP receptor binding assay ([3H]-TCP displacement, brain membranes). Details: species or system guinea-pig (male Hartley). To be noted: for IC50: read-out: PCP RECEPTOR IC50. The protocol: as §1, §2, §3
Programs in Biomed. 17:107 (1983)].

Setting [4] is: Table 2, aryl ring substituents.

T1 sequence (Q60492 whole entry): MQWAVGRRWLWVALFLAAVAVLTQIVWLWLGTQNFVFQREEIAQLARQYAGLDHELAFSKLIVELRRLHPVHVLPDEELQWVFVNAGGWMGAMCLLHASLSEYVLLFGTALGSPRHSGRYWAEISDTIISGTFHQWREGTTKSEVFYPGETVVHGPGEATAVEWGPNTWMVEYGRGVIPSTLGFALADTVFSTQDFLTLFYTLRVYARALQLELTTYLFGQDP

As for `CCCN1CCC[C@H](c2cccc(O)c2)C1` [(+)-3-PPP, (+)-3-(3-hydroxyphenyl)-N-(1-propyl)piperidine], the “affinity / binding at σ receptors (in words)” value (from here on “affinity / binding”) in assay [1] is on record as “bind to σ receptors”.
In the case of `Oc1cccc(C2(CN3CCCC3)CCCCC2)c1` [Compound 29], in assay [2], the “potency at σ receptors (in words)” value is recorded as “only slight effect on σ receptor potency” and the “selectivity for σ receptors (in words)” value is recorded as “selectivity for σ receptors was poor”. Besides, the “SIGMA RECEPTOR SLOPE” value in assay [2] (Table 2) was 0.80 ± 0.07. Besides, the IC50 in assay [2] (setting [4]) stood at 1080 nM. In addition, the IC50 in assay [3] (setting [4]) was 1320 nM.
Take `Oc1ccc(C2(CN3CCCC3)CCCCC2)cc1` [Compound 30]: in assay [2], the “potency at σ receptors (in words)” value was “did not improve potency as much as the 3-hydroxy derivative”. The “selectivity for σ receptors (in words)” value in assay [2] is given as “considerably improved selectivity for σ receptors”. For the same compound, the “SIGMA RECEPTOR SLOPE” value in assay [2] (Table 2) is given as 0.78 ± 0.02. Besides, the IC50 in assay [2] (setting [4]) was 1740 nM; in assay [3] (setting [4]), greater than 25000 nM. Further, in assay [3], the “potency at PCP receptors (in words)” value was “inactive at PCP receptor sites”.
As for `O=[N+]([O-])c1ccc(C2(CN3CCCC3)CCCCC2)cc1` [Compound 31], in assay [2], the “potency at σ receptors (in words)” value is listed as “somewhat potent” and the “selectivity for σ receptors (in words)” value is on record as “very selective for σ receptors”. Also, the “SIGMA RECEPTOR SLOPE” value in assay [2] (Table 2) came to 0.65 ± 0.05. Besides, the IC50 in assay [2] (setting [4]) stood at 282 nM. In assay [3], the “potency at PCP receptors (in words)” value was “inactive at PCP sites”. Besides, the 50% inhibitory concentration (IC50) in assay [3] (setting [4]) is greater than 25000 nM.
With `Clc1cccc(C2(CN3CCCC3)CCCCC2)c1` [Compound 32], the “SIGMA RECEPTOR SLOPE” value in assay [2] (Table 2) was found to be 0.73 ± 0.16. Further, the IC50 in assay [2] (setting [4]) was found to be 248 nM; in assay [3] (setting [4]), 867 ± 9 nM.
In the same order, the values of `COc1cccc(C2(CN3CCCC3)CCCCC2)c1` [Compound 33] are 0.73 ± 0.08, 1190 nM and 552 ± 20 nM.
In the case of `COc1ccc(C2(CN3CCCC3)CCCCC2)cc1` [Compound 34], the “potency at σ receptors (in words)” value in assay [2] is listed as “somewhat potent”. The “selectivity for σ receptors (in words)” value in assay [2] is on record as “very selective for σ receptors”. In addition, in assay [2] (Table 2), the “SIGMA RECEPTOR SLOPE” value was 0.80 ± 0.07. Besides, the IC50 is 546 nM in assay [2] (setting [4]) and greater than 25000 nM in assay [3] (setting [4]). Moreover, the “potency at PCP receptors (in words)” value in assay [3] is “inactive at PCP sites”.
For `COc1ccc(C2(CN3CCCC3)CCCCC2)cc1OC` [Compound 35], the “potency at σ receptors (in words)” value in assay [2] is on record as “poor to reasonable potency at σ sites”. Also, the “selectivity for σ receptors (in words)” value in assay [2] is recorded as “high selectivity for σ receptors”. Further, in assay [2] (Table 2), the “SIGMA RECEPTOR SLOPE” value is 0.66 ± 0.07. The IC50 is 1320 nM in assay [2] (setting [4]) and greater than 25000 nM in assay [3] (setting [4]).
`Oc1cccc(C2(CN3CCOCC3)CCCCC2)c1` [Compound 36]: the 50% inhibitory concentration (IC50) in assay [2] (setting [4]) and in assay [3] (setting [4]) was greater than 25000 nM each time.
For the compound `COc1cccc(C2(CN3CCOCC3)CCCCC2)c1` [Compound 37], the 50% inhibitory concentration (IC50) in assay [2] (setting [4]) and in assay [3] (setting [4]) was greater than 25000 nM throughout.
On to `COc1ccc(C2(CN3CCOCC3)CCCCC2)cc1OC` [Compound 38], for which, in assay [2], the “potency at σ receptors (in words)” value is “essentially inactive in both σ and PCP binding assays”. Moreover, the IC50 in assay [2] (setting [4]) and in assay [3] (setting [4]) was greater than 25000 nM throughout. Moreover, in assay [3], the “potency at PCP receptors (in words)” value was “essentially inactive in both σ and PCP binding assays”.
With `CCN(CC)CC1(c2ccc([N+](=O)[O-])cc2)CCCCC1` [Compound 39], the “SIGMA RECEPTOR SLOPE” value in assay [2] (Table 2) is on record as 0.44 ± 0.01. The IC50 in assay [2] (setting [4]) is 304 nM; in assay [3] (setting [4]), greater than 25000 nM.
As for `CN(C)CC1(c2cccc(O)c2)CCCCC1` [Compound 40], the “SIGMA RECEPTOR SLOPE” value in assay [2] (Table 2) came to 0.61 ± 0.01. For the same compound, the concentration for half-maximal inhibition (IC50) in assay [2] (setting [4]) was 10100 nM; in assay [3] (setting [4]), greater than 25000 nM.
In the case of `Cc1ccc(C2(CN(C)C)CCCCC2)cc1` [Compound 41], the “SIGMA RECEPTOR SLOPE” value in assay [2] (Table 2) is on record as 0.62 ± 0.03. The IC50 in assay [2] (setting [4]) was 541 nM; in assay [3] (setting [4]) it was greater than 25000 nM.
In the same order, the values of `COc1cccc(C2(CN(C)C)CCCCC2)c1` [Compound 42] are 0.70 ± 0.06, 2850 nM and greater than 25000 nM.
For `COc1ccc(C2(CN(C)C)CCCCC2)cc1OC` [Compound 43], in assay [2], the “potency at σ receptors (in words)” value is “poor to reasonable potency at σ sites” and the “selectivity for σ receptors (in words)” value is reported as “high selectivity for σ receptors”. The “SIGMA RECEPTOR SLOPE” value in assay [2] (Table 2) amounted to 0.66 ± 0.13. In addition, in assay [2] (setting [4]), the IC50 came to 9050 nM. Besides, the IC50 in assay [3] (setting [4]) is greater than 25000 nM.
Consider `c1ccc(C2(CN3CCCCC3)CCCC2)cc1` [Compound 44], for which the “SIGMA RECEPTOR SLOPE” value in assay [2] (Table 3) is on record as 1.03 ± 0.04. In addition, the IC50 was 995 nM in assay [2] (Table 3, cycloalkyl ring size) and greater than 25000 nM in assay [3] (Table 3, cycloalkyl ring size).
Taken in the same sequence, the figures for `c1ccc(C2(CN3CCCCC3)CC2)cc1` [Compound 45] were 0.83 ± 0.19, 5590 nM and 8840 nM.
Taken in the same sequence, the figures for `O=C(OCCN1CCCC1)C1(c2ccccc2)CCCC1` [Compound 46] were 0.68 ± 0.06, 454 nM and greater than 25000 nM.
Take `O=C(OCCN1CCCC1)C1(c2ccccc2)CC1` [Compound 47, 2-(1-Pyrrolidino)ethyl 1-Phenylcyclopropane-1-carboxylate hydrochloride]: the “SIGMA RECEPTOR SLOPE” value in assay [2] (Table 3) worked out at 0.78 ± 0.09. Besides, the IC50 was 1460 nM in assay [2] (Table 3, cycloalkyl ring size) and greater than 25000 nM in assay [3] (Table 3, cycloalkyl ring size).
For `C=CCN1CCC2(C)c3cc(O)ccc3CC1C2C` (stereo not shown) [N-allylnormetazocine], the “affinity / binding” value in assay [1] is recorded as “bind to σ receptors”.
Consider `CC1C2Cc3ccc(O)cc3C1(C)CCN2CC1CC1` (stereo not shown) [cyclazocine, 3-(cyclopropylmethyl)-1,2,3,4,5,6-hexahydro-6,11-dimethyl-2,6-methano-3-benzazocin-8-ol], for which the “affinity / binding” value in assay [1] is given as “bind to σ receptors”.
On to `C=CCN1CC[C@@]23CCCC[C@@H]2[C@@H]1Cc1ccc(O)cc13` [dextrallorphan], for which the “affinity / binding” value in assay [1] is “bind to σ receptors”.
In the case of `CC(C)=CCN1CCC2(C)c3cc(O)ccc3CC1C2C` (stereo not shown) [pentazocine, 2-dimethylallyl-5,9-dimethyl-2-hydroxy-benzomorphan], the “affinity / binding” value in assay [1] is given as “bind to σ receptors”.

What is called IC50 is the midpoint of a concentration-inhibition curve.
